The target of experiment [1] is T1, c-Met (cytoplasmic domain) (Homo sapiens, UniProt P08581).
T1 construct: Reactions were initiated with 30 ng/mL c-Met (cytoplasmic domain, Invitrogen Corporation #PV3143); purchased Invitrogen Corporation PV3143
The experiment in a line: c-Met Kinase Assay (ELISA/TRF, PLC-γ substrate). The experiment is classed as biochemical. To be noted: 3 μM ATP (Km level); read-out: c-Met Kinase Inhibition (IC50). The essentials:
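c-Met cytoplasmic domain (30 ng/mL) phosphorylates plate-coated GST–PLC-γ for 15 min at 37 °C. Phosphotyrosine detected with Eu-labeled PT66 antibody by time-resolved fluorescence. IC50 from variable-slope sigmoidal fit of % inhibition vs log concentration.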
(In general: An ELISA detects its analyte on a solid surface through an enzyme-linked reagent.)

For experiment [2], the target named is baculovirus-expressed ALK (Homo sapiens, UniProt Q9UM73). The experiment in a line: ALK Kinase Assay (ELISA/TRF, PLC-γ substrate). Note: 1 µM ATP (Km level). Particulars: read-out: ALK Kinase Inhibition (IC50). It is filed as biochemical. Summed up:
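Plates coated with GST-PLC-γ substrate (10 µg/mL in TBS), then reaction started with 30 ng/ml baculovirus-expressed ALK, 15 min at 37 °C. Phosphotyrosine detected by Eu-labeled PT66 antibody and time-resolved fluorescence. IC50 from variable-slope sigmoidal fit of percent inhibition versus log concentration.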

A word on the IC50: it is the concentration at which inhibition is half-maximal.

A value given as a limit tells only on which side of the number the result lay.

T1 sequence (P08581 956-1390 limits assumed): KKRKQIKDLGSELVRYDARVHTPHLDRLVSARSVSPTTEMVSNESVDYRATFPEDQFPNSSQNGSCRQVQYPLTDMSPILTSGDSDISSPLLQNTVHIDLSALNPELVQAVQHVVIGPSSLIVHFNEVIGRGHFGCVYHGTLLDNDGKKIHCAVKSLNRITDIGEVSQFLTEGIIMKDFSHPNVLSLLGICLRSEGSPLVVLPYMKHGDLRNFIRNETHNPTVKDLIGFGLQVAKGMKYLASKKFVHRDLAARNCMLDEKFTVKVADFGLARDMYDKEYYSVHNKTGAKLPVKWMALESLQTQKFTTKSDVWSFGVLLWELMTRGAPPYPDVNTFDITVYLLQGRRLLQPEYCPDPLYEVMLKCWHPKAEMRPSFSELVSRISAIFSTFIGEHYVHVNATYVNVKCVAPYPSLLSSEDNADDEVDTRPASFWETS
Chain of baculovirus-expressed ALK (Q9UM73 19-1620): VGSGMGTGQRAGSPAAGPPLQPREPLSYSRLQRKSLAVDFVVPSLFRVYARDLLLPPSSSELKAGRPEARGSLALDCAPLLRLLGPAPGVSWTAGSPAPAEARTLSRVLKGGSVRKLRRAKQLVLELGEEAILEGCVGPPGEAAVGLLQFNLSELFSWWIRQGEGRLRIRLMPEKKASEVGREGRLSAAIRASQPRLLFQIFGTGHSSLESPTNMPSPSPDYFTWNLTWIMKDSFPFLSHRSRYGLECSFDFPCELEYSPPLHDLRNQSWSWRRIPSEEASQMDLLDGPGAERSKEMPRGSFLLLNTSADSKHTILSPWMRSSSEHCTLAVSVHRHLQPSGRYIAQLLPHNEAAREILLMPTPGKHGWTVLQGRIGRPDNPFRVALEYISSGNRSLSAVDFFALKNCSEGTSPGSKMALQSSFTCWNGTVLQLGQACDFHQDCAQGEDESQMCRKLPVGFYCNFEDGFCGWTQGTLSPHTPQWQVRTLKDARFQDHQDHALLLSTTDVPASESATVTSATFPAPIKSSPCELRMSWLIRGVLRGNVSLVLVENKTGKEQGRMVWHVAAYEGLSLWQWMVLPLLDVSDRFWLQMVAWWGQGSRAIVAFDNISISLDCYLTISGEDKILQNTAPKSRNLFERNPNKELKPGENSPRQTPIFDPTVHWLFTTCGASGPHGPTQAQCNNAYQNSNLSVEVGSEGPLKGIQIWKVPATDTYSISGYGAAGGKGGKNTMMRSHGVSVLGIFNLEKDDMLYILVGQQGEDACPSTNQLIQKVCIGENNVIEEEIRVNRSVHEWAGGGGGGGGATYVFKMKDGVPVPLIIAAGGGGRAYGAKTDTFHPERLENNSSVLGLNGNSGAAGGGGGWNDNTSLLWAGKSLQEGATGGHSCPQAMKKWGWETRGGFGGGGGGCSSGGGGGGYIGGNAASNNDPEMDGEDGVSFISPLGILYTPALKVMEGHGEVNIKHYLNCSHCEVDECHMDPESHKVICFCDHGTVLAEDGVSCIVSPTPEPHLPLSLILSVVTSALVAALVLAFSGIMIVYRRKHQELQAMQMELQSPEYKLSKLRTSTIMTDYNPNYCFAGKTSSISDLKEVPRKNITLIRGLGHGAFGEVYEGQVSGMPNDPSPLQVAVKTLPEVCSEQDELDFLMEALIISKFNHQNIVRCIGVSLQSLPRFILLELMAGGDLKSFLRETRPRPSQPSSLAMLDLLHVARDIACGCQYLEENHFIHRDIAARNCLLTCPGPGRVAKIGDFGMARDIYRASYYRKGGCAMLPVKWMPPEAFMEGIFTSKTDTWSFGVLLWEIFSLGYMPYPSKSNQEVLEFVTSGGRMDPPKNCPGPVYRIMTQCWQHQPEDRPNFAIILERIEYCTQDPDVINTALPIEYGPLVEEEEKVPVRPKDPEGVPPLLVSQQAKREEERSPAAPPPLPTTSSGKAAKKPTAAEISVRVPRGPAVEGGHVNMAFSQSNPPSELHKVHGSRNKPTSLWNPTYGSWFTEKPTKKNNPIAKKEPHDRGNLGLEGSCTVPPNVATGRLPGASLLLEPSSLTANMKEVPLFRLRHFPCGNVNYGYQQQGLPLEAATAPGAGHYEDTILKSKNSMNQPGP

In the case of `O=C(NCC(c1ccccc1)c1ccccc1)c1cnc2c(c1)N(Cc1cc(Cl)ccc1Cl)CCN2` [Example 226, 1-(2,5-Dichlorobenzyl)-1,2,3,4-tetrahydropyrido[2,3-b]pyrazine-7-carboxylic acid (2,2-diphenylethyl)amide], the IC50 in experiment [1] and in experiment [2] was 10 to 100 µM each time.

With `CC(=O)N1CCN(C(=O)c2cnc3c(c2)N(Cc2cc(Cl)ccc2Cl)CCN3)CC1` [Example 227, 1-{4-[1-(2,5-Dichlorobenzyl)-1,2,3,4-tetrahydropyrido[2,3-b]pyrazine-7-carbonyl]piperazin-1-yl}ethanone], the IC50 in experiment [1] and in experiment [2] was 10 to 100 µM throughout.

Consider `O=C(NCc1cccc(Cl)c1)c1cnc2c(c1)N(Cc1cc(Cl)ccc1Cl)CCN2` [Example 228, 1-(2,5-Dichlorobenzyl)-1,2,3,4-tetrahydropyrido[2,3-b]pyrazine-7-carboxylic acid 3-chlorobenzylamide], for which the half-inhibitory concentration (IC50) in experiment [1] was in the range of 10 to 100 µM; in experiment [2], 1 to 10 µM.

Take `O=C(c1cnc2c(c1)N(Cc1cc(Cl)ccc1Cl)CCN2)N1CCN(CCc2ccccn2)CC1` [Example 229, [1-(2,5-Dichlorobenzyl)-1,2,3,4-tetrahydropyrido[2,3-b]pyrazin-7-yl]-[4-(2-pyridin-2-yl-ethyl)piperazin-1-yl]methanone]: the concentration for half-maximal inhibition (IC50) in experiment [1] and in experiment [2] was 1 to 10 µM each time.

As to `O=C(NCc1ccc(OC(F)(F)F)cc1)c1cnc2c(c1)N(Cc1cc(Cl)ccc1Cl)CCN2` [Example 230, 1-(2,5-Dichlorobenzyl)-1,2,3,4-tetrahydropyrido[2,3-b]pyrazine-7-carboxylic acid 4-(trifluoromethoxy)benzylamide], the IC50 in experiment [1] was more than 100 µM; in experiment [2] it was 1 to 10 µM.

As for `O=C(c1cnc2c(c1)N(Cc1cc(Cl)ccc1Cl)CCN2)N1CCC(N2CCOCC2)CC1` [Example 231, [1-(2,5-Dichlorobenzyl)-1,2,3,4-tetrahydropyrido[2,3-b]pyrazin-7-yl]-(4-morpholin-4-yl-piperidin-1-yl)methanone], the IC50 in experiment [1] lay within 10 to 100 µM; in experiment [2], 1 to 10 µM.

In the case of `O=C(NCCc1cccs1)c1cnc2c(c1)N(Cc1cc(Cl)ccc1Cl)CCN2` [Example 232, 1-(2,5-Dichlorobenzyl)-1,2,3,4-tetrahydropyrido[2,3-b]pyrazine-7-carboxylic acid (2-thiophen-2-yl-ethyl)amide], the IC50 in experiment [1] was more than 100 µM; in experiment [2], 0.1 to 1 µM.

With `O=C(NC(c1ccccc1)c1ccccc1)c1cnc2c(c1)N(Cc1cc(Cl)ccc1Cl)CCN2` [Example 233, 1-(2,5-Dichlorobenzyl)-1,2,3,4-tetrahydropyrido[2,3-b]pyrazine-7-carboxylic acid benzhydrylamide], the IC50 in experiment [1] was 10 to 100 µM; in experiment [2], 1 to 10 µM.

In the case of `O=C(NCc1ccncc1)c1cnc2c(c1)N(Cc1cc(Cl)ccc1Cl)CCN2` [Example 234, 1-(2,5-Dichlorobenzyl)-1,2,3,4-tetrahydropyrido[2,3-b]pyrazine-7-carboxylic acid (pyridin-4-ylmethyl)amide], the values for the IC50 in experiment [1] and in experiment [2] were more than 100 µM and 1 to 10 µM, respectively.

As for `O=C(NCc1cccnc1)c1cnc2c(c1)N(Cc1cc(Cl)ccc1Cl)CCN2` [Example 235, 1-(2,5-Dichlorobenzyl)-1,2,3,4-tetrahydropyrido[2,3-b]pyrazine-7-carboxylic acid (pyridin-3-ylmethyl)amide], the half-maximal inhibitory concentration (IC50) lay within 10 to 100 µM in experiment [1] and 1 to 10 µM in experiment [2].

For `CC(C)NC(=O)CN1CCN(C(=O)c2cnc3c(c2)N(Cc2cc(Cl)ccc2Cl)CCN3)CC1` [Example 236, 2-{4-[1-(2,5-Dichlorobenzyl)-1,2,3,4-tetrahydropyrido[2,3-b]pyrazine-7-carbonyl]piperazin-1-yl}-N-isopropylacetamide], the figures for the IC50 in experiment [1] and in experiment [2] were 10 to 100 µM and 1 to 10 µM, respectively.

For the compound `Cc1cc(N2CCN(C(=O)c3cnc4c(c3)N(Cc3cc(Cl)ccc3Cl)CCN4)CC2)c2ccccc2n1` [Example 237, [1-(2,5-Dichlorobenzyl)-1,2,3,4-tetrahydropyrido[2,3-b]pyrazin-7-yl]-[4-(2-methylquinolin-4-yl)piperazin-1-yl]methanone], the IC50 in experiment [1] and in experiment [2] was 1 to 10 µM throughout.

Take `O=C(c1cnc2c(c1)N(Cc1cc(Cl)ccc1Cl)CCN2)N1CCC[C@H]1CN1CCCC1` [Example 238, [1-(2,5-Dichlorobenzyl)-1,2,3,4-tetrahydropyrido[2,3-b]pyrazin-7-yl]-((S)-2-pyrrolidin-1-ylmethyl-pyrrolidin-1-yl)methanone]: the IC50 in experiment [1] was more than 100 µM; in experiment [2], 1 to 10 µM.

In the case of `O=C(NCc1cc(C(F)(F)F)cc(C(F)(F)F)c1)c1cnc2c(c1)N(Cc1cc(Cl)ccc1Cl)CCN2` [Example 239, 1-(2,5-Dichlorobenzyl)-1,2,3,4-tetrahydropyrido[2,3-b]pyrazine-7-carboxylic acid 3,5-bis-(trifluoromethyl)benzylamide], the results for the IC50 in experiment [1] and in experiment [2] were more than 100 µM and 1 to 10 µM, respectively.

Take `NS(=O)(=O)c1ccc(CCNC(=O)c2cnc3c(c2)N(Cc2cc(Cl)ccc2Cl)CCN3)cc1` [Example 240, 1-(2,5-Dichlorobenzyl)-1,2,3,4-tetrahydropyrido[2,3-b]pyrazine-7-carboxylic acid [2-(4-sulfamoylphenyl)ethyl]amide]: the IC50 in experiment [1] is more than 100 µM; in experiment [2] it was 0.1 to 1 µM.

Consider `O=C(c1cnc2c(c1)N(Cc1cc(Cl)ccc1Cl)CCN2)N1CCN(c2cnccn2)CC1` [Example 241, [1-(2,5-Dichlorobenzyl)-1,2,3,4-tetrahydropyrido[2,3-b]pyrazin-7-yl]-(2,3,5,6-tetrahydro-[1,2′]bipyrazinyl-4-yl)methanone], for which the concentration for half-maximal inhibition (IC50) in experiment [1] was more than 100 µM; in experiment [2], 0.1 to 1 µM.

Take `O=C(NCc1csc(-c2ccccc2)n1)c1cnc2c(c1)N(Cc1cc(Cl)ccc1Cl)CCN2` [Example 242, 1-(2,5-Dichlorobenzyl)-1,2,3,4-tetrahydropyrido[2,3-b]pyrazine-7-carboxylic acid (2-phenylthiazol-4-yl-methyl)amide]: the IC50 in experiment [1] is more than 100 µM; in experiment [2], 1 to 10 µM.

As to `O=C(c1cnc2c(c1)N(Cc1cc(Cl)ccc1Cl)CCN2)N1CCOCC1` [Example 243, [1-(2,5-Dichlorobenzyl)-1,2,3,4-tetrahydropyrido[2,3-b]pyrazin-7-yl]morpholin-4-yl-methanone], the IC50 in experiment [1] and in experiment [2] was 10 to 100 µM in each case.

With `O=C(NCc1cccc2ccccc12)c1cnc2c(c1)N(Cc1cc(Cl)ccc1Cl)CCN2` [Example 244, 1-(2,5-Dichlorobenzyl)-1,2,3,4-tetrahydropyrido[2,3-b]pyrazine-7-carboxylic acid (naphthalen-1-yl-methyl)amide], the IC50 in experiment [1] was more than 100 µM; in experiment [2], 1 to 10 µM.

For `O=C(NC1CCc2ccccc21)c1cnc2c(c1)N(Cc1cc(Cl)ccc1Cl)CCN2` (stereo not drawn) [Example 245, 1-(2,5-Dichlorobenzyl)-1,2,3,4-tetrahydropyrido[2,3-b]pyrazine-7-carboxylic acid indan-1-ylamide], the concentration for half-maximal inhibition (IC50) lay in the range of 10 to 100 µM in experiment [1] and 0.1 to 1 µM in experiment [2].

Consider `O=C(NCc1ccccc1)c1cnc2c(c1)N(Cc1cc(Cl)ccc1Cl)CCN2` [Example 246, 1-(2,5-Dichlorobenzyl)-1,2,3,4-tetrahydropyrido[2,3-b]pyrazine-7-carboxylic acid benzylamide], for which the IC50 in experiment [1] is more than 100 µM; in experiment [2], 0.1 to 1 µM.

`COc1ccc(N2CCN(C(=O)c3cnc4c(c3)N(Cc3cc(Cl)ccc3Cl)CCN4)CC2)cc1` [Example 247, [1-(2,5-Dichlorobenzyl)-1,2,3,4-tetrahydropyrido[2,3-b]pyrazin-7-yl]-[4-(4-methoxyphenyl)piperazin-1-yl]methanone]: the IC50 is more than 100 µM in experiment [1] and 1 to 10 µM in experiment [2].

As for `O=C(NC1CCCCC1)c1cnc2c(c1)N(Cc1cc(Cl)ccc1Cl)CCN2` [Example 248, 1-(2,5-Dichlorobenzyl)-1,2,3,4-tetrahydropyrido[2,3-b]pyrazine-7-carboxylic acid cyclohexylamide], the IC50 in experiment [1] was more than 100 µM; in experiment [2] it was 1 to 10 µM.

Turning to `O=C(NCc1ccc(-c2ccccc2)cc1)c1cnc2c(c1)N(Cc1cc(Cl)ccc1Cl)CCN2` [Example 249, 1-(2,5-Dichlorobenzyl)-1,2,3,4-tetrahydropyrido[2,3-b]pyrazine-7-carboxylic acid (biphenyl-4-ylmethyl)amide], the IC50 in experiment [1] is more than 100 µM; in experiment [2], 10 to 100 µM.

For the compound `O=C(c1cnc2c(c1)N(Cc1cc(Cl)ccc1Cl)CCN2)N1CCN(c2ccc(Cl)cc2)CC1` [Example 250, [4-(4-Chlorophenyl)piperazin-1-yl]-[1-(2,5-dichlorobenzyl)-1,2,3,4-tetrahydropyrido[2,3-b]pyrazin-7-yl]methanone], the values for the IC50 in experiment [1] and in experiment [2] were more than 100 µM and 0.1 to 1 µM, respectively.

Regarding `O=C(NCCOc1ccccc1)c1cnc2c(c1)N(Cc1cc(Cl)ccc1Cl)CCN2` [Example 251, 1-(2,5-Dichlorobenzyl)-1,2,3,4-tetrahydropyrido[2,3-b]pyrazine-7-carboxylic acid (2-phenoxyethyl)amide], the 50% inhibitory concentration (IC50) in experiment [1] and in experiment [2] was 10 to 100 µM throughout.

As for `O=C(c1cnc2c(c1)N(Cc1cc(Cl)ccc1Cl)CCN2)N1CCN(C(=O)C2CCCO2)CC1` (stereo not drawn) [Example 252, [1-(2,5-Dichlorobenzyl)-1,2,3,4-tetrahydropyrido[2,3-b]pyrazin-7-yl]-[4-(tetrahydrofuran-2-carbonyl)piperazin-1-yl]methanone], the IC50 in experiment [1] is more than 100 µM; in experiment [2], 10 to 100 µM.

For the origin of these results see patent publication US7601716B2, “Pyridopyrazines and derivatives thereof as ALK and c-Met inhibitors” (Cephalon, Inc., priority 2006, dated 2009).
